The record followed here is ChEMBL document CHEMBL1921711, “Transformation of quercitols into 4-methylenecyclohex-5-ene-1,2,3-triol derivatives, precursors for the chemical chaperones N-octyl-4-epi-β-valienamine (NOEV) and N-octyl-β-valienamine (NOV)” (Bioorg Med Chem Lett, 2011).

One may read the IC50 as the concentration that inhibits the measured activity by half. The low end stands for inhibition by little substance, the high end for a need for much substance.

Calls of active or inactive are those of the source. No cut-off for these calls is given here. A value given as a limit tells only on which side of the number the result lay.

Test [1] has as its target T1, Beta-galactosidase (Bos taurus, UniProt Q58D55).
T1 sequence (Q58D55 whole entry): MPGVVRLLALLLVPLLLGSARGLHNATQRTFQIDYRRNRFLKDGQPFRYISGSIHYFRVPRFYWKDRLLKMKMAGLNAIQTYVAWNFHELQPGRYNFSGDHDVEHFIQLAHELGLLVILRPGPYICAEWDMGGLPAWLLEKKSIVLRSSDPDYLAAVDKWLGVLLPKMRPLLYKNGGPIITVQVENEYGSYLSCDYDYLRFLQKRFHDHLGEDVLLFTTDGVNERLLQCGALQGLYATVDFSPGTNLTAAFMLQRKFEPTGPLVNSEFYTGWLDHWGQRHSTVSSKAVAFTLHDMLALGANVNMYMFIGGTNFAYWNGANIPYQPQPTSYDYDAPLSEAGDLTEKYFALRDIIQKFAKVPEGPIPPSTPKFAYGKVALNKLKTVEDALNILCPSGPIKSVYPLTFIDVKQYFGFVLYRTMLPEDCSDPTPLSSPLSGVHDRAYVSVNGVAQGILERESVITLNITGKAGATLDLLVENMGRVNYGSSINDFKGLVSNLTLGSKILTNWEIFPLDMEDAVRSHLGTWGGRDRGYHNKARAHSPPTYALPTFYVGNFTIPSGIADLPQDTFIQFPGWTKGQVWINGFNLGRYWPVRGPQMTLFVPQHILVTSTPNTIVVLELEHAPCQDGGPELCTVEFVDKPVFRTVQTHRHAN
The experiment in a line: Inhibition of bovine liver beta-galactosidase by spectrometry.

Test [2] deals with T2, Beta-galactosidase (Aspergillus oryzae, UniProt Q2U7N3).
T2 sequence (Q2U7N3 whole entry): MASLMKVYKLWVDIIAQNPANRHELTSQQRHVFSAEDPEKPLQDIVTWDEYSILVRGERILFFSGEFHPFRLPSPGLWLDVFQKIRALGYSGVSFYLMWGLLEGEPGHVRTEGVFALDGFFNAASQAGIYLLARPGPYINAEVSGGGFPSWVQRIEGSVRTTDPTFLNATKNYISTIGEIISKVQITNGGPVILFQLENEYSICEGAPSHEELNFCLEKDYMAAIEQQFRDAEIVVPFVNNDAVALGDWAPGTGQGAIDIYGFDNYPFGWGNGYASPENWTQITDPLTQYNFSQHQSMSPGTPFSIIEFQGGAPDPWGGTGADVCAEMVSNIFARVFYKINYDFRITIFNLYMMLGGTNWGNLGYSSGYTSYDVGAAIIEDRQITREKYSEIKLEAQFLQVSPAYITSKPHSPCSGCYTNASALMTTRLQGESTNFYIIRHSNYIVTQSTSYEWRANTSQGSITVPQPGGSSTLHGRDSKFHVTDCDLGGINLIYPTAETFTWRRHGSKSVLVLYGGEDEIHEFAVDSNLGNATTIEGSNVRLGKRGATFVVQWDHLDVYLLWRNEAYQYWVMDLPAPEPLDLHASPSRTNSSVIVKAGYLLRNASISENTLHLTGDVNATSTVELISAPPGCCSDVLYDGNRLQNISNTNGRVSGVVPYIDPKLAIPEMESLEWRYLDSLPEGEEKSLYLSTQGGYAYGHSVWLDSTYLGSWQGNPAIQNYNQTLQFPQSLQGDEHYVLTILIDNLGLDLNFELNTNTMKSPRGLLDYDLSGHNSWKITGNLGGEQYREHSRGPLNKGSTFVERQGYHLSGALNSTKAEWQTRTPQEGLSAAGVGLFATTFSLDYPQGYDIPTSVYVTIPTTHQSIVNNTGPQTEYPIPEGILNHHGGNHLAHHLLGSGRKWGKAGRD
The experiment in a line: Inhibition of Aspergillus oryzae beta-galactosidase by spectrometry.

Test [3] in a line: (§1) Inhibition of almonds beta-glucosidase by spectrometry. More on the design: species or system Prunus dulcis.
The next test concerns Prunus dulcis. Described as §1.
A further test deals with Alpha-galactosidase (Coffea arabica, UniProt Q42656). The experiment in a line: Inhibition of green coffee beans alpha-galactosidase by spectrometry.
In the next test the test system is Helix pomatia. In words: Inhibition of helix pomatia beta-mannosidase by spectrometry.
The species named for a further test is Homo sapiens. The experiment in a line: Inhibition of human placental alpha-fucosidase by spectrometry.
Another test concerns Canavalia ensiformis. The experiment in a line: Inhibition of jack beans alpha-mannosidase by spectrometry.

Chain of Alpha-galactosidase (Q42656 whole entry): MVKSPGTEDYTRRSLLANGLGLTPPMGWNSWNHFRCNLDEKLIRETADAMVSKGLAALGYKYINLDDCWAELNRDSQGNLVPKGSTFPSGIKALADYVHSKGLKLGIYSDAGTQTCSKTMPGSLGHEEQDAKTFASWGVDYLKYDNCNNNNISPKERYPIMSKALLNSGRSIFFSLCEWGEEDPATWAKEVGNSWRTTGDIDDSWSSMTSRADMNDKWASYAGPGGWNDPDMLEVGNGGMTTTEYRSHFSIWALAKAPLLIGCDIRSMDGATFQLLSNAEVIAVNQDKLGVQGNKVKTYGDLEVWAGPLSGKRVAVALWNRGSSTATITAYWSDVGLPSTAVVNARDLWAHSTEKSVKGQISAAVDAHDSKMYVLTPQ

Take `CCCCCCCCN[C@@H]1C=C(CO)[C@H](O)[C@H](O)[C@H]1O`: the IC50 on Beta-galactosidase [1] was determined as 4.5 µM; on Beta-galactosidase [2], 85 µM; in test [3], 8.1 µM; at Alpha-galactosidase it was 4.5 µM. In addition, the inhibition entry in the test with Prunus dulcis was “Active”. Also, the inhibition entry in the test with Helix pomatia, in the test listed under Homo sapiens and in the test on Canavalia ensiformis was “inactive” each time.
Regarding `CCCCCCCCN[C@@H]1C=C(CO)[C@@H](O)[C@H](O)[C@H]1O`, the values for the 50% inhibitory concentration (IC50) (against Beta-galactosidase [1]; in test [3]; against Alpha-galactosidase) were 2.9 µM, 47 µM and > 1000 µM, respectively.
